Our source for the EC50 values is patent US11492361B2, “Compounds useful in HIV therapy” (GlaxoSmithKline Intellectual Property Development Limited, priority 2018, dated 2022).

Where a name gives a salt, the structure may show the parent alone.

The test system of this assay is Jurkat HIV-luciferase clones. As to the kind of experiment: Jurkat latency reversal assay. The format is cell-based. The following applies: Homo sapiens, Jurkat, 48 h. The protocol:
Jurkat HIV-luciferase clones were maintained in RPMI medium 1640 (Gibco by Life Technologies) containing 10% (vol/vol) fetal bovine serum (SAFC/Sigma-Aldrich) and 25 units/mL penicillin, 25 units/mL streptomycin (Gibco by Life Technologies), and were split 1:4 every 3 to 4 days to maintain a cell density of ˜0.3 to 1 million cells/mL. The Jurkat clones were maintained with the addition of 500 nM EFV in the medium. Three Jurkat cell clones (C16, I15, and N6), each harboring one or two integrated HIV proviruses expressing the luciferase reporter gene, were added at equal amounts for a total of 5,000 cells per well to 384-well plates containing compound titrations. Dose-response testing was performed on compounds dissolved in dimethyl sulfoxide (DMSO, Fisher Scientific, Merelbeke, Belgium) dispensed in duplicate serial 3-fold, 14-point titrations using a D300e Digital Droplet Dispenser (Hewlett-Packard) to give final assay concentrations of 10 μM to 2.1 pM in 50 μL of medium at 0.5% DMSO (vol/vol) final concentration. Cells and compound were incubated at 37° C. for 48 hours, unless otherwise indicated, followed by the addition of 20 μL of Steady-Glo® Luciferase (Promega). Luminescence resulting from the induction of the virally expressed luciferase was measured using an EnVision 2102 Multilabel Plate Reader (Perkin Elmer). Dose-response relationships were analyzed with GraphPad PRISM 6 using a four-parameter logistic regression model to calculate the concentration of compound that gives half-maximal response (EC50) and the maximal percent activation compared to the vehicle control.
The term EC50 denotes the concentration giving half of the maximal effect. For the compound `CN[C@@H](C)C(=S)N[C@H]1CCS[C@H]2CC(C)(C)[C@@H](C(=O)N[C@H]3c4ccccc4C[C@H]3OCc3ccc(CO[C@@H]4Cc5ccccc5[C@@H]4NC(=O)[C@H]4N5C(=O)[C@@H](NC(=S)[C@H](C)NC)CCS[C@H]5CC4(C)C)cc3)N2C1=O` [compound 23, (4S,4′S,7S,7′S,9aS,9a′S)-N,N′-((1S,1′S,2R,2′R)-((1,4-phenylenebis(methylene))bis(oxy))bis(2,3-dihydro-1H-indene-2,1-diyl))bis(8,8-dimethyl-4-((S)-2-(methylamino)propanethioamido)-5-oxooctahydropyrrolo[2,1-b][1,3]thiazepine-7-carboxamide)], the EC50 turned out to be 0.0555 µM. To `CN[C@@H](C)C(=O)N[C@H]1CCS[C@H]2CC(C)(C)[C@@H](C(=O)N[C@H](C(=O)NCc3ccc(CNC(=O)[C@@H](NC(=O)[C@H]4N5C(=O)[C@@H](NC(=O)[C@H](C)NC)CCS[C@H]5CC4(C)C)c4ccccc4)cc3)c3ccccc3)N2C1=O` [compound 24, (4S,4′S,7S,7′S,9aS,9a′S)-N,N′-((1S,1′S)-((1,4-phenylenebis(methylene))bis(azanediyl))bis(2-oxo-1-phenylethane-2,1-diyl))bis(8,8-dimethyl-4-((S)-2-(methylamino)propanamido)-5-oxooctahydropyrrolo[2,1-b][1,3]thiazepine-7-carboxamide)] belongs 0.0479 µM; to `CN[C@@H](C)C(=S)N[C@H]1CCS[C@H]2CC(C)(C)[C@@H](C(=O)N[C@H](C(=O)NCc3ccc(CNC(=O)[C@@H](NC(=O)[C@H]4N5C(=O)[C@@H](NC(=S)[C@H](C)NC)CCS[C@H]5CC4(C)C)c4ccccc4)cc3)c3ccccc3)N2C1=O` [compound 25, (4S,4′S,7S,7′S,9aS,9a′S)-N,N′-((1S,1′S)-((1,4-phenylenebis(methylene))bis(azanediyl))bis(2-oxo-1-phenylethane-2,1-diyl))bis(8,8-dimethyl-4-((S)-2-(methylamino)propanethioamido)-5-oxooctahydropyrrolo[2,1-b][1,3]thiazepine-7-carboxamide) dihydrochloride], 0.0618 µM; to `CN[C@@H](C)C(=O)N[C@H]1CCS[C@H]2CC(C)(C)[C@@H](C(=O)N[C@H](C(=O)N3CCN(C(=O)[C@@H](NC(=O)[C@H]4N5C(=O)[C@@H](NC(=O)[C@H](C)NC)CCS[C@H]5CC4(C)C)c4ccccc4)CC3)c3ccccc3)N2C1=O` [compound 26, (4S,4′S,7S,7′S,9aS,9a′S)-N,N′-((1S,1′S)-piperazine-1,4-diylbis(2-oxo-1-phenylethane-2,1-diyl))bis(8,8-dimethyl-4-((S)-2-(methylamino)propanamido)-5-oxooctahydropyrrolo[2,1-b][1,3]thiazepine-7-carboxamide) dihydrochloride], 0.0691 µM.

For `CN[C@@H](C)C(=S)N[C@H]1CCS[C@H]2CC(C)(C)[C@@H](C(=O)N[C@H](C(=O)N3CCN(C(=O)[C@@H](NC(=O)[C@H]4N5C(=O)[C@@H](NC(=S)[C@H](C)NC)CCS[C@H]5CC4(C)C)c4ccccc4)CC3)c3ccccc3)N2C1=O` [compound 27, (4S,4′S,7S,7′S,9aS,9a′S)-N,N′-((1S,1′S)-piperazine-1,4-diylbis(2-oxo-1-phenylethane-2,1-diyl))bis(8,8-dimethyl-4-((S)-2-(methylamino)propanethioamido)-5-oxooctahydropyrrolo[2,1-b][1,3]thiazepine-7-carboxamide) dihydrochloride], the EC50 turned out to be 0.0522 µM. The figure for `CN[C@@H](C)C(=O)N[C@H]1CCS[C@H]2CC(C)(C)[C@@H](C(=O)N[C@H](C(=O)NCC#CC#CCNC(=O)[C@@H](NC(=O)[C@H]3N4C(=O)[C@@H](NC(=O)[C@H](C)NC)CCS[C@H]4CC3(C)C)c3ccccc3)c3ccccc3)N2C1=O` [compound 30, (4S,4′S,7S,7′S,9aS,9a′S)-N,N′-((1S,1′S)-(hexa-2,4-diyne-1,6-diylbis(azanediyl))bis(2-oxo-1-phenylethane-2,1-diyl))bis(8,8-dimethyl-4-((S)-2-(methylamino)propanamido)-5-oxooctahydropyrrolo[2,1-b][1,3]thiazepine-7-carboxamide) dihydrochloride] is 0.0654 µM; for `CN[C@@H](C)C(=O)N[C@H]1CCS[C@H]2CC(C)(C)[C@@H](C(=O)N[C@H](C(=O)NCC#CC#CCNC(=O)[C@@H](NC(=O)[C@H]3N4C(=O)[C@@H](NC(=S)[C@H](C)NC)CCS[C@H]4CC3(C)C)c3ccccc3)c3ccccc3)N2C1=O` [compound 31, (4S,7S,9aS)-N-((S)-2-((6-((S)-2-((4S,7S,9aS)-8,8-dimethyl-4-((S)-2-(methylamino)propanamido)-5-oxooctahydropyrrolo[2,1-b][1,3]thiazepine-7-carboxamido)-2-phenylacetamido)hexa-2,4-diyn-1-yl)amino)-2-oxo-1-phenylethyl)-8,8-dimethyl-4-((S)-2-(methylamino)propanethioamido)-5-oxooctahydropyrrolo[2,1-b][1,3]thiazepine-7-carboxamide dihydrochloride] it is 0.0258 µM; for `CN[C@@H](C)C(=S)N[C@H]1CCS[C@H]2CC(C)(C)[C@@H](C(=O)N[C@H](C(=O)NCC#CC#CCNC(=O)[C@@H](NC(=O)[C@H]3N4C(=O)[C@@H](NC(=S)[C@H](C)NC)CCS[C@H]4CC3(C)C)c3ccccc3)c3ccccc3)N2C1=O` [compound 32, (4S,4′S,7S,7′S,9aS,9a′S)-N,N′-((1S,1′S)-(hexa-2,4-diyne-1,6-diylbis(azanediyl))bis(2-oxo-1-phenylethane-2,1-diyl))bis(8,8-dimethyl-4-((S)-2-(methylamino)propanethioamido)-5-oxooctahydropyrrolo[2,1-b][1,3]thiazepine-7-carboxamide)] it is 0.166 µM. To `CN[C@@H](C)C(=O)N[C@H]1CCS[C@H]2CC(C)(C)[C@@H](C(=O)N[C@H](COCC#CC#CCOC[C@@H](NC(=O)[C@H]3N4C(=O)[C@@H](NC(=S)[C@H](C)NC)CCS[C@H]4CC3(C)C)c3ccccc3)c3ccccc3)N2C1=O` [compound 34, (4S,7S,9aS)-N-((S)-2-((6-((S)-2-((4S,7S,9aS)-8,8-dimethyl-4-((S)-2-(methylamino)propanamido)-5-oxooctahydropyrrolo[2,1-b][1,3]thiazepine-7-carboxamido)-2-phenylethoxy)hexa-2,4-diyn-1-yl)oxy)-1-phenylethyl)-8,8-dimethyl-4-((S)-2-(methylamino)propanethioamido)-5-oxooctahydropyrrolo[2,1-b][1,3]thiazepine-7-carboxamide] belongs 0.0363 µM; to `CN[C@@H](C)C(=S)N[C@H]1CCS[C@H]2CC(C)(C)[C@@H](C(=O)N[C@H](COCC#CC#CCOC[C@@H](NC(=O)[C@H]3N4C(=O)[C@@H](NC(=S)[C@H](C)NC)CCS[C@H]4CC3(C)C)c3ccccc3)c3ccccc3)N2C1=O` [compound 35, (4S,4′S,7S,7′S,9aS,9a′S)-N,N′-((1S,1′S)-(hexa-2,4-diyne-1,6-diylbis(oxy))bis(1-phenylethane-2,1-diyl))bis(8,8-dimethyl-4-((S)-2-(methylamino)propanethioamido)-5-oxooctahydropyrrolo[2,1-b][1,3]thiazepine-7-carboxamide)], 0.009 µM. The figure for `CN[C@@H](C)C(=O)N[C@H]1CCS[C@H]2CC(C)(C)[C@@H](C(=O)N[C@H](COCCCCOC[C@@H](NC(=O)[C@H]3N4C(=O)[C@@H](NC(=O)[C@H](C)NC)CCS[C@H]4CC3(C)C)c3ccccc3)c3ccccc3)N2C1=O` [compound 36, (4S,4′S,7S,7′S,9aS,9a′S)-N,N′-((1S,1′S)-(butane-1,4-diylbis(oxy))bis(1-phenylethane-2,1-diyl))bis(8,8-dimethyl-4-((S)-2-(methylamino)propanamido)-5-oxooctahydropyrrolo[2,1-b][1,3]thiazepine-7-carboxamide) dihydrochloride] is 0.0095 µM; for `CN[C@@H](C)C(=S)N[C@H]1CCS[C@H]2CC(C)(C)[C@@H](C(=O)N[C@H](COCCCCOC[C@@H](NC(=O)[C@H]3N4C(=O)[C@@H](NC(=S)[C@H](C)NC)CCS[C@H]4CC3(C)C)c3ccccc3)c3ccccc3)N2C1=O` [compound 37, (4S,4′S,7S,7′S,9aS,9a′S)-N,N′-((1S,1′S)-(butane-1,4-diylbis(oxy))bis(1-phenylethane-2,1-diyl))bis(8,8-dimethyl-4-((S)-2-(methylamino)propanethioamido)-5-oxooctahydropyrrolo[2,1-b][1,3]thiazepine-7-carboxamide) dihydrochloride] it is 0.0109 µM; for `CN[C@@H](C)C(=O)N[C@H]1CCS[C@H]2CC(C)(C)[C@@H](C(=O)N[C@H](COCCOCCOC[C@@H](NC(=O)[C@H]3N4C(=O)[C@@H](NC(=O)[C@H](C)NC)CCS[C@H]4CC3(C)C)c3ccccc3)c3ccccc3)N2C1=O` [compound 38, (4S,4′S,7S,7′S,9aS,9a′S)-N,N′-((1S,1′S)-((oxybis(ethane-2,1-diyl))bis(oxy))bis(1-phenylethane-2,1-diyl))bis(8,8-dimethyl-4-((S)-2-(methylamino)propanamido)-5-oxooctahydropyrrolo[2,1-b][1,3]thiazepine-7-carboxamide)] it is 0.0507 µM.
